# Experimental data reported in paper PMC12777753 (Emerging Microbes & Infections, 2025).
# Counter-ions that a name gives are not always drawn. Like-named read-outs stand apart in the source and are kept apart here. Marks after values point to notes of the source that are not given here.
# Key:
# [1] = system: Genotype B3.13 viruses (n = 10); assay: microbe, parasite or virus in culture; format: cell-based, influenza A(H5N1) virus; conditions: Influenza A virus, read-out: PA inhibitor EC50, median
# [2] = system: A/California/147/2024; assay: microbe, parasite or virus in culture; format: cell-based, influenza A(H5N1) virus; conditions: Influenza A virus, read-out: PA inhibitor EC50 ± SD
# [3] = system: A/California/148/2024; assay: microbe, parasite or virus in culture; format: cell-based, influenza A(H5N1) virus; conditions: Influenza A virus, read-out: PA inhibitor EC50 ± SD
# [4] = system: A/California/151/2024; assay: microbe, parasite or virus in culture; format: cell-based, influenza A(H5N1) virus; conditions: Influenza A virus, read-out: PA inhibitor EC50 ± SD
# [5] = system: A/California/152/2024; assay: microbe, parasite or virus in culture; format: cell-based, influenza A(H5N1) virus; conditions: Influenza A virus, read-out: PA inhibitor EC50 ± SD
# [6] = system: A/California/153/2024; assay: microbe, parasite or virus in culture; format: cell-based, influenza A(H5N1) virus; conditions: Influenza A virus, read-out: PA inhibitor EC50 ± SD
# [7] = system: A/California/155/2024; assay: microbe, parasite or virus in culture; format: cell-based, influenza A(H5N1) virus; conditions: Influenza A virus, read-out: PA inhibitor EC50 ± SD
# [8] = system: Genotype D1.1 viruses (n = 7); assay: microbe, parasite or virus in culture; format: cell-based, influenza A(H5N1) virus; conditions: Influenza A virus, read-out: PA inhibitor EC50, median
# [9] = system: A/Nevada/10/2025; assay: microbe, parasite or virus in culture; format: cell-based, influenza A(H5N1) virus; conditions: Influenza A virus, read-out: PA inhibitor EC50 ± SD
# [10] = system: A/bald eagle/FL/2022 (H5N1); assay: microbe, parasite or virus in culture; format: cell-based, influenza A(H5N1) virus; conditions: Influenza A virus
# [11] = system: A/Illinois/08/2018 (H1N1)pdm09; assay: microbe, parasite or virus in culture; format: cell-based, influenza A(H1N1)pdm09 virus; conditions: Influenza A virus, H1N1, read-out: PA inhibitor EC50 ± SD
# [12] = system: A/Louisiana/50/2017 (H3N2); assay: microbe, parasite or virus in culture; format: cell-based; conditions: Influenza A virus, H3N2, read-out: PA inhibitor EC50 ± SD
# [13] = system: A/California/147/2024 (CA/147, wildtype); design: species or system BALB/c mice; conditions: mouse, in vivo; for Survival (%): po
# [14] = system: clade 2.3.4.4b HPAI A(H5N1) viruses (B3.13 and D1.1); assay: microbe, parasite or virus in culture; format: cell-based; conditions: for EC50: Influenza A virus, H5N1, read-out: 50% effective concentrations (EC50s), range over viruses
# [15] = system: A/Wisconsin/53/2009 (H1N1)pdm09; assay: microbe, parasite or virus in culture; format: cell-based, influenza A(H1N1)pdm09 virus; conditions: Influenza A virus, H1N1, read-out: EC50 ± SD
# [16] = target: NA of Genotype B3.13 viruses (n = 10) (Influenza A virus, UniProt Q9Q0U7); format: biochemical, influenza A(H5N1) virus; conditions: read-out: NA inhibitor IC50, median
# [17] = target: NA of A/California/147/2024 (Influenza A virus, UniProt Q9Q0U7); format: biochemical, influenza A(H5N1) virus; conditions: read-out: NA inhibitor IC50 ± SD
# [18] = target: NA of A/California/148/2024 (Influenza A virus, UniProt Q9Q0U7); format: biochemical, influenza A(H5N1) virus; conditions: read-out: NA inhibitor IC50 ± SD
# [19] = target: NA of A/California/151/2024 (Influenza A virus, UniProt Q9Q0U7); format: biochemical, influenza A(H5N1) virus; conditions: read-out: NA inhibitor IC50 ± SD
# [20] = target: NA of A/California/152/2024 (Influenza A virus, UniProt Q9Q0U7); format: biochemical, influenza A(H5N1) virus; conditions: read-out: NA inhibitor IC50 ± SD
# [21] = target: NA of A/California/153/2024 (Influenza A virus, UniProt Q9Q0U7); format: biochemical, influenza A(H5N1) virus; conditions: read-out: NA inhibitor IC50 ± SD
# [22] = target: NA of A/California/155/2024 (Influenza A virus, UniProt Q9Q0U7); format: biochemical, influenza A(H5N1) virus; conditions: read-out: NA inhibitor IC50 ± SD
# [23] = target: NA of A/California/173/2024 (Influenza A virus, UniProt Q9Q0U7); format: biochemical, influenza A(H5N1) virus; conditions: read-out: NA inhibitor IC50 ± SD
# [24] = target: NA of Genotype D1.1 viruses (n = 7) (Influenza A virus, UniProt Q9Q0U7); format: biochemical, influenza A(H5N1) virus; conditions: read-out: NA inhibitor IC50, median
# [25] = target: NA of A/Iowa/24/2024 (Influenza A virus, UniProt Q9Q0U7); format: biochemical, influenza A(H5N1) virus; conditions: read-out: NA inhibitor IC50 ± SD
# [26] = target: NA of A/Nevada/10/2025 (Influenza A virus, UniProt Q9Q0U7); format: biochemical, influenza A(H5N1) virus; conditions: read-out: NA inhibitor IC50 ± SD
# [27] = target: NA of A/Wyoming/01/2025 (Influenza A virus, UniProt Q9Q0U7); format: biochemical, influenza A(H5N1) virus; conditions: read-out: NA inhibitor IC50 ± SD
# [28] = target: NA of A/bald eagle/FL/2022 (H5N1) (Influenza A virus, UniProt Q9Q0U7); format: biochemical; conditions: read-out: NA inhibitor IC50 ± SD
# [29] = target: NA of A/Illinois/45/2019 (H1N1)pdm09 (Influenza A virus, UniProt A0A0X9QTS2); format: biochemical; conditions: read-out: NA inhibitor IC50 ± SD
# [30] = target: NA of A/Illinois/08/2018 (H1N1)pdm09 (Influenza A virus, UniProt A0A0X9QTS2); format: biochemical; conditions: read-out: NA inhibitor IC50 ± SD
# [31] = target: NA of A/Louisiana/50/2017 (H3N2) (Influenza A virus, UniProt A0A193ACB1); format: biochemical; conditions: read-out: NA inhibitor IC50 ± SD
# [32] = target: recNA A/California/148/2024 (genotype B3.13) WT (Influenza A virus, UniProt Q9Q0U7); format: biochemical, influenza A(H5N1) virus
# [33] = target: recNA A/Washington/239/2024 (genotype D1.1) WT (Influenza A virus, UniProt Q8QPK2); format: biochemical, influenza A(H5N1) virus
compound,measurement,setting,value
"O=C1c2c(O)c(=O)ccn2N([C@@H]2c3ccccc3SCc3c2ccc(F)c3F)[C@@H]2COCCN12 [Baloxavir, baloxavir acid]",EC50,[1],0.5 nM
same,EC50,[2],0.4 nM
same,EC50,[3],0.26 nM
same,EC50,[4],0.72 nM
same,EC50,[5],0.45 nM
same,EC50,[6],0.59 nM
same,EC50,[7],0.41 nM
same,EC50,[8],0.34 nM
same,EC50,[9],0.34 nM
same,EC50,"[10]; H5N1, read-out: PA inhibitor EC50 ± SD",0.39 ± 0.16 nM
same,EC50,[11],0.96 ± 0.37 nM
same,EC50,[12],0.8 ± 0.28 nM
same,infectious virus in any organs of treated mice,[13],not detected
same,loss of initial weight,[13]; 5 mg/kg,≤ 6%
same,Survival (%),[13]; 5 mg/kg,87.5%
same,"EC50s, in words",[14],sub-nanomolar
"CC(N)C12CC3CC(CC(C3)C1)C2 (stereo not drawn) [Rimantadine, rimantadine]",EC50,"[10]; H5N1, read-out: EC50 ± SD",5.74 ± 1.31 ng/mL
same,EC50,[15],6.08 ± 0.9 ng/mL
same,EC50,[14],3.14 to 6.48 ng/mL
peramivir,IC50,[16],0.07 nM
same,IC50,[17],0.07 nM
same,IC50,[18],0.07 nM
same,IC50,[19],0.07 nM
same,IC50,[20],0.08 nM
same,IC50,[21],0.06 nM
same,IC50,[22],0.08 nM
same,IC50,[23],0.06 nM
same,IC50,[24],0.07 nM
same,IC50,[25],0.07 nM
same,IC50,[26],0.07 nM
same,IC50,[27],0.07 nM
same,IC50,[28],0.08 ± 0.02 nM
same,IC50,[29],0.04 ± 0.01 nM
same,IC50,[30],0.04 ± 0.01 nM
same,IC50,[31],0.07 ± 0.01 nM
same,IC50,[32],0.08 nM
same,IC50,[33],0.06 nM
"COC(=O)OCOc1c2n(ccc1=O)N([C@@H]1c3ccccc3SCc3c1ccc(F)c3F)[C@@H]1COCCN1C2=O [Baloxavir marboxil, baloxavir marboxil]",Mean TTD (day),[13]; 5 mg/kg,11^c day
same,"Wt. Loss (%), mean maximum weight loss",[13]; 5 mg/kg,5%
same,"Wt. Loss (%), mean maximum weight loss",[13]; 15 mg/kg,6%
same,"Wt. Loss (%), mean maximum weight loss",[13]; 45 mg/kg,4%
same,Survival (%),[13]; 5 mg/kg,7/8 (87.5) %
same,Survival (%),[13]; 15 mg/kg,8/8 (100) %
same,Survival (%),[13]; 45 mg/kg,8/8 (100) %
"NC12CC3CC(CC(C3)C1)C2 [Amantadine, amantadine hydrochloride]",EC50,"[10]; H5N1, read-out: EC50 ± SD",20.5 ± 4.96 ng/mL
same,EC50,[15],25.9 ± 1.51 ng/mL
same,EC50,[14],9.25 to 21.5 ng/mL
"CC(=O)N[C@H]1[C@H]([C@H](O)[C@H](O)CO)OC(C(=O)O)=C[C@@H]1N=C(N)N [Zanamivir, zanamivir]",IC50,[22],0.16 nM
same,IC50,[23],0.23 nM
same,IC50,[25],0.34 nM
same,IC50,[26],0.36 nM
same,IC50,[27],0.46 nM
oseltamivir carboxylate,IC50,[29],0.28 ± 0.04 nM
same,IC50,[30],0.34 ± 0.03 nM
